Measurements taken from ChEMBL document CHEMBL5346863, “Discovery of substituted benzyloxy-benzylamine inhibitors of acetyltransferase Eis and their anti-mycobacterial activity” (Eur J Med Chem, 2022).
≈ marks a conversion by molar mass, not a printed value.

system: Mycobacterium tuberculosis variant bovis; experiment: Antibacterial activity against Mycobacterium bovis BCG ATCC 35734 assessed as bacterial growth inhibition incubated for 2 to 3 weeks by resazurin dye based assay; type: functional; conditions: time 2-3 weeks

| Structure (SMILES) | MIC [µM] |
| --- | --- |
| Fc1ccc(COc2cccc(CNCc3ccncc3)c2)cc1 | > 62.5 |
| c1ccc(COc2ccc(CNCc3cccnc3)cc2)cc1 | > 62.5 |
| c1ccc(COc2ccccc2CNCc2cccnc2)cc1 | > 62.5 |
| Clc1ccc(COc2cccc(CNCc3ccncc3)c2)cc1 | 62.5 (≈ 21.2 µg/mL) |
| Clc1ccc(COc2ccc(CNCc3ccncc3)cc2)cc1 | 31.3 (≈ 10.6 µg/mL) |
| Fc1ccc(COc2ccccc2CNCc2cccnc2)cc1 | > 62.5 |
| Fc1ccc(COc2ccc(CNCc3cccnc3)cc2)cc1 | 62.5 (≈ 20.1 µg/mL) |
| Fc1ccc(COc2cccc(CNCc3cccnc3)c2)cc1 | > 62.5 |
| Clc1cccc(COc2ccccc2CNCc2ccccc2)c1 | 15.6 (≈ 5.27 µg/mL) |
| Clc1ccc(COc2cccc(CNCc3ccccc3)c2)cc1 | 7.8 (≈ 2.64 µg/mL) |
| Brc1ccc(COc2ccccc2CNCc2ccncc2)cc1 | 62.5 (≈ 24 µg/mL) |
| Cc1ccc(COc2ccc(CNCc3ccccc3)cc2)cc1 | 3.9 (≈ 1.24 µg/mL) |
| Fc1ccc(COc2cccc(CNCc3ccccc3)c2)cc1 | 7.8 (≈ 2.51 µg/mL) |
| c1ccc(CNCc2ccc(OCc3ccc(-c4ccccc4)cc3)cc2)cc1 | 3.9 (≈ 1.48 µg/mL) |
| Brc1ccc(COc2ccccc2CNCc2ccccc2)cc1 | 62.5 (≈ 23.9 µg/mL) |
| Clc1ccc(COc2ccc(CNCc3ccccc3)cc2)cc1 | 7.8 (≈ 2.64 µg/mL) |
| Clc1ccc(COc2cccc(CNCc3cccnc3)c2)cc1 | 62.5 (≈ 21.2 µg/mL) |
| COc1ccc(COc2ccc(CNCc3ccccc3)cc2)cc1 | 7.8 (≈ 2.6 µg/mL) |
| Fc1ccc(COc2ccc(CNCc3ccccc3)cc2)cc1 | > 62.5 |

| Structure (SMILES) | MIC [µM] |
| --- | --- |
| Clc1ccc(COc2ccccc2CNCc2ccncc2)cc1 | 62.5 (≈ 21.2 µg/mL) |
| CC(C)(C)c1ccc(COc2ccc(CNCc3ccccc3)cc2)cc1 | 2 (≈ 0.719 µg/mL) |
| Brc1ccc(COc2ccc(CNCc3ccccc3)cc2)cc1 | 3.9 (≈ 1.49 µg/mL) |
| CC(C)c1ccc(COc2ccc(CNCc3ccccc3)cc2)cc1 | 1 (≈ 0.345 µg/mL) |
| Brc1ccccc1COc1ccc(CNCc2ccccc2)cc1 | 7.8 (≈ 2.98 µg/mL) |
| c1ccc(CNCc2ccccc2OCc2ccccc2)cc1 | 62.5 (≈ 19 µg/mL) |
| Fc1ccc(COc2ccccc2CNCc2ccccc2)cc1 | > 62.5 |
| Brc1cccc(COc2ccc(CNCc3ccccc3)cc2)c1 | 7.8 (≈ 2.98 µg/mL) |
| c1ccc(COc2ccccc2CNCc2ccncc2)cc1 | > 62.5 |
| Clc1ccc(COc2ccc(CNCc3cccnc3)cc2)cc1 | 62.5 (≈ 21.2 µg/mL) |
| Clc1cccc(COc2ccccc2CNCc2cccnc2)c1 | 62.5 (≈ 21.2 µg/mL) |
| Clc1ccc(COc2ccccc2CNCc2ccccc2)cc1 | 62.5 (≈ 21.1 µg/mL) |
| Fc1ccc(COc2ccc(CNCc3ccncc3)cc2)cc1 | 62.5 (≈ 20.1 µg/mL) |
| Brc1ccc(COc2ccccc2CNCc2cccnc2)cc1 | 62.5 (≈ 24 µg/mL) |
| Clc1cccc(COc2ccccc2CNCc2ccncc2)c1 | > 62.5 |
| c1ccc(COc2ccc(CNCc3ccncc3)cc2)cc1 | > 62.5 |
| c1ccc(CNCc2ccc(OCc3ccccc3)cc2)cc1 | 31.3 (≈ 9.5 µg/mL) |
| NNC(=O)c1ccncc1 [ISONIAZID] | ≤ 0.25 |
